Data taken from publication PMC10192880 (Frontiers in Pharmacology, 2023).

Experiments:
clinical = assay: clinical
Protocol: This was an open-label, three-period, controlled before-and-after trial (China Clinical Trial Registry: ChiCTR1900024344). It was conducted at the Second Affiliated Hospital within Tianjin University of Traditional Chinese Medicine (Tianjin, China). The protocol was approved by the ethics committees of the Second Affiliated Hospital within Tianjin University of Traditional Chinese Medicine. Written informed consent was provided by all participants. This trial was in accordance with the Declaration of Helsinki 1964 and its later amendments.
Men and women aged 18–45 years participated in this trial if they were healthy and the EPHX1 A/A genotype was confirmed. The key exclusion criteria were coagulation disorders or allergies to drugs.
Our trial comprised three periods. […] After 3 days, individuals entered the second period, in which CDDP (10 pills, p. o., t.d.s.) was administered for 5 days.
Moreover, blood samples were taken from participants once a day before CDDP administration for assays of coagulation indices to ensure safety.

[1] = system: transfected EPHX1 A/G and BL cells; assay: MTT cell viability of transfected cells; format: cell-based, human; details: 0.0625–8.00 mg/mL for 24 h or 72 h, dose-dependent
Protocol: CDDP was manufactured by Tianjin Tasly Group (Tianjin, China). […] Transfected cells were plated evenly on a 96-well cell-culture plate with ∼8,000 cells/well. They were cultured for 24 h at 37°C. […] Subsequently, to each well was added 10 µL of 3-(4,5-Dimethylthiazol-2-yl)-2,5-diphenyltetrazolium bromide solution (5 mg/mL), and cells were allowed to incubate for an additional 4 h in an atmosphere of 5% CO2 at 37°C. Then, the cells were centrifugated and the […]. Finally, the blue-purple crystals were dissolved using dimethyl sulfoxide (150 µL) with agitation for 10 min. The absorbance of each well was determined at 490 nm. Cell viability (Supplementary Figure S1) was calculated according to the formula: Cell viability=absorbanceexperiment/absorbancecontrol×100%
Thus, the incubation time selected at 24 h.

[2] = by dose adjustment (residual drug converted into a dose), third period: warfarin + CDDP
[3] = by dose adjustment, first period: warfarin 3 mg p.o. alone
[4] = first period: warfarin 3 mg p.o. alone, HVs EPHX1 A/A
[5] = third period: warfarin 3 mg p.o. + CDDP 10 pills p.o., HVs EPHX1 A/A

| Structure (SMILES) | AUC0-144 (clinical; [2]) [ng/h/mL] | Cmax (clinical; [2]) [ng/mL] | Tmax (clinical; [2]) [h] | Vd (clinical; [2]) [mL] | AUC0-144 (clinical; [3]) [ng/h/mL] | CL (clinical; [3]) [mL/h] | Cmax (clinical; [3]) [ng/mL] | Tmax (clinical; [3]) [h] | Vd (clinical; [3]) [mL] | AUC0-144 (clinical; [4]) [ng/h/mL] | CL (clinical; [4]) [mL/h] | Cmax (clinical; [4]) [ng/mL] | Tmax (clinical; [4]) [h] | Vd (clinical; [4]) [mL] | AUC0-144 (clinical; [5]) [ng/h/mL] | CL (clinical; [5]) [mL/h] | Cmax (clinical; [5]) [ng/mL] | Tmax (clinical; [5]) [h] | Vd (clinical; [5]) [mL] | also measured |
| --- | --- | --- | --- | --- | --- | --- | --- | --- | --- | --- | --- | --- | --- | --- | --- | --- | --- | --- | --- | --- |
| CC(=O)C[C@@H](c1ccccc1)c1c(O)c2ccccc2oc1=O [S-Warfarin] | 7223 ± 1727 | 261.9 ± 54.50 | 0.714 ± 0.393 | 32429 ± 3754 | 5812 ± 1632 | 466.0 ± 109.7 | 199.0 ± 76.90 | 1.500 ± 1.414 | 37594 ± 9569 | 5812 ± 1632 | 466.0 ± 109.7 | 199.0 ± 76.90 | 1.500 ± 1.414 | 37594 ± 9569 | 7223 ± 1727 | 374.1 ± 82.69 | 261.9 ± 54.50 | 0.714 ± 0.393 | 28630 ± 3437 | CL (clinical; [2]): 423.5 ± 91.18 mL/h |
| CC(=O)C[C@H](c1ccccc1)c1c(O)c2ccccc2oc1=O [R-Warfarin] | 14594 ± 3088 | 273.9 ± 58.10 | 0.7143 ± 0.3934 | 18445 ± 2408 | 11630 ± 2938 | 210.3 ± 57.13 | 204.6 ± 71.38 | 1.857 ± 1.435 | 20505 ± 4506 | 11630 ± 2938 | 210.3 ± 57.13 | 204.6 ± 71.38 | 1.857 ± 1.435 | 20505 ± 4506 | 14594 ± 3088 | 164.8 ± 51.16 | 273.9 ± 58.10 | 0.7143 ± 0.3934 | 16283 ± 2164 |  |
| CC(=O)CC(c1ccccc1)c1c(O)c2ccccc2oc1=O (centres unmarked) [Warfarin] |  |  |  |  |  |  |  |  |  |  |  |  |  |  |  |  |  |  |  | CL (clinical; both, human, in vivo, po, 3 mg): 144.9 ± 36.87 mL/h; Cmax (clinical; both, human, in vivo, po, 3 mg): 403 ± 148 ng/mL; Tmax (clinical; both, human, in vivo, po, 3 mg): 1.86 ± 1.44 h; Vd (clinical; both, human, in vivo, po, 3 mg): 13393 ± 3036 mL; cells' viability [1]: significantly decreased |
